Like-named read-outs stand apart in the source and are kept apart here.
Assays:
HeLa cells [1] = test: Transfection efficiency with Luciferase (SecNLuc) mRNA, Nano-Glo assay (Method A); assay type: cell-based; conditions: Luc mRNA, 24 h, luminescence; for Transfection 10 ng mRNA: 10 ng mRNA/well; for Transfection 50 ng mRNA: 50 ng mRNA/well; for Transfection 100 ng mRNA: 100 ng mRNA/well
Method in brief: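 LNPs formulated by Method A carried SecNLuc mRNA at 100, 50 or 10 ng/well onto HeLa cells at 80% confluence, in triplicate. After 24 h, secreted NanoLuc in the medium was measured by Nano-Glo luminescence about 3 min after reagent addition.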

HepG2 cell line = test: In vitro toxicity study on HepG2 cell line (resazurin, viability and IC50); assay type: cell-based, human; conditions: for IC50: read-out: IC50 value, μM (on HepG2 cell)
Method in brief: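 HepG2 cells (1000/well) were treated after overnight incubation with lipids at 6.25–800 μM for 48 h. Viability was read by resazurin fluorescence (530/580 nm) after 5 h at 37 °C, relative to ethanol vehicle controls. IC50 values came from concentration-response curves.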

HeLa cells [2] = test: Cell viability assessment with resazurin assay (Method A); assay type: cell-based
Method in brief: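 HeLa cells after Luc mRNA LNP transfection were incubated 50 min at 37 °C with 0.025 mg/ml resazurin in DMEM/F12 with 10% FCS. Resorufin fluorescence was read at ex 540/em 610 nm, background-subtracted, and expressed as percent of OptiMEM-only controls.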

[3] = HepG2 cells, 6.25 μM lipid, 48 h post-treatment, resazurin, relative to ethanol vehicle controls
[4] = HepG2 cells, 12.5 μM lipid, 48 h post-treatment, resazurin, relative to ethanol vehicle controls
[5] = HepG2 cells, 25 μM lipid, 48 h post-treatment, resazurin, relative to ethanol vehicle controls
[6] = HepG2 cells, 50 μM lipid, 48 h post-treatment, resazurin, relative to ethanol vehicle controls
[7] = HepG2 cells, 100 μM lipid, 48 h post-treatment, resazurin, relative to ethanol vehicle controls
[8] = HepG2 cells, 200 μM lipid, 48 h post-treatment, resazurin, relative to ethanol vehicle controls
[9] = HepG2 cells, 400 μM lipid, 48 h post-treatment, resazurin, relative to ethanol vehicle controls
[10] = HepG2 cells, 800 μM lipid, 48 h post-treatment, resazurin, relative to ethanol vehicle controls
[11] = Homo sapiens, lipid toxicity, HepG2, 48 h post-treatment, resazurin, 6.25-800 μM

| SMILES | Transfection 10 ng mRNA (HeLa cells [1]) | Transfection 50 ng mRNA (HeLa cells [1]) | Transfection 100 ng mRNA (HeLa cells [1]) | Viability (%) at different lipid concentrations, mean (HepG2 cell line; [3]) [%] | Viability (%) at different lipid concentrations, mean (HepG2 cell line; [4]) [%] | Viability (%) at different lipid concentrations, mean (HepG2 cell line; [5]) [%] | Viability (%) at different lipid concentrations, mean (HepG2 cell line; [6]) [%] | Viability (%) at different lipid concentrations, mean (HepG2 cell line; [7]) [%] | Viability (%) at different lipid concentrations, mean (HepG2 cell line; [8]) [%] | Viability (%) at different lipid concentrations, mean (HepG2 cell line; [9]) [%] | Viability (%) at different lipid concentrations, mean (HepG2 cell line; [10]) [%] | IC50 (HepG2 cell line; [11]) [µM] | Cell Viability % (Average metabolic rate over all doses, Resazurin) (HeLa cells [2]; human) [%] | Viability (%) at different lipid concentrations, mean (HepG2 cell line; human, 48 h, 6.25 μM) [%] | Viability (%) at different lipid concentrations, mean (HepG2 cell line; human, 48 h, 50 μM) [%] | IC50 (HepG2 cell line; Homo sapiens, HepG2, 48 h) [µM] | IC50 (HepG2 cell line; lipid toxicity, HepG2, 48 h post-treatment, resazurin, 6.25-800 μM) [µM] | Cell Viability % (Average metabolic rate over all doses, Resazurin) (HeLa cells [2]) [%] |
| --- | --- | --- | --- | --- | --- | --- | --- | --- | --- | --- | --- | --- | --- | --- | --- | --- | --- | --- |
| CCCCCCCC/C=C\CCCCCCCCOC(=O)C(C)(C)CC(OCCCCCCCC/C=C\CCCCCCCC)O[Si](C)(C)OCCCCCCN1CCCC1CO (stereo not drawn) [Example 90, (Z)-octadec-9-en-1-yl 4-((((6-(2-(hydroxymethyl)pyrrolidin-1-yl)hexyl)oxy)dimethylsilyl)oxy)-2,2-dimethyl-4-(((Z)-octadec-9-en-1-yl)oxy)butanoate] | 2.84E+04 | 1.06E+06 | 4.86E+06 | 101.5 | 96.4 | 96.6 | 100.5 | 105.8 | 104.9 | 93.1 | 84.0 | > 800 | 106 |  |  |  |  |  |
| CCCCCCCC/C=C\CCCCCCCCOC(=O)C(C)(C)CC(OCCCCCCCC/C=C\CCCCCCCC)O[Si](C)(C)OCCCCCCN(C)CCCCO (stereo not drawn) [Example 91, (Z)-octadec-9-en-1-yl 18-hydroxy-2,2,6,6,14-pentamethyl-4-(((Z)-octadec-9-en-1-yl)oxy)-5,7-dioxa-14-aza-6-silaoctadecanoate] | 7.02E+03 | 1.13E+05 | 7.45E+05 | 100.2 | 98.8 | 108.4 | 112.4 | 103.1 | 88.0 | 61.2 | 44.1 | 625 | 105 |  |  |  |  |  |
| CCCCCCCC/C=C\CCCCCCCCOC(=O)C(C)(C)CC(OCCCCCCCC/C=C\CCCCCCCC)O[Si](C)(C)OCCCCCCN(C)CC(O)CO (stereo not drawn) [Example 92, (Z)-octadec-9-en-1-yl 1,2-dihydroxy-4,12,12,16,16-pentamethyl-14-(((Z)-octadec-9-en-1-yl)oxy)-11,13-dioxa-4-aza-12-silaheptadecan-17-oate] | 3.35E+03 | 3.94E+04 | 1.65E+05 | 105.5 | 104.3 | 110.6 | 109.4 | 98.9 | 80.7 | 63.8 | 49.2 | 691 | 111 |  |  |  |  |  |
| CCCCCCCC/C=C\CCCCCCCCOC(=O)C(C)(C)CC(OCCCCCCCC/C=C\CCCCCCCC)O[Si](C)(C)OCCCCCCN(C)CCO (stereo not drawn) [Example 93, (Z)-octadec-9-en-1-yl 1-hydroxy-3,11,11,15,15-pentamethyl-13-(((Z)-octadec-9-en-1-yl)oxy)-10,12-dioxa-3-aza-11-silahexadecan-16-oate] | 2.73E+03 | 2.75E+04 | 1.19E+05 | 102.3 | 99.0 | 105.2 | 112.1 | 111.6 | 99.7 | 83.4 | 72.2 | > 800 | 106 |  |  |  |  |  |
| CCCCCCCC/C=C\CCCCCCCCOC(=O)C(C)(C)CCC(OCCCCCCCC/C=C\CCCCCCCC)O[Si](C)(C)OCCCCCCN(CCO)CCO (stereo not drawn) [Example 94, (Z)-octadec-9-en-1-yl 1-hydroxy-3-(2-hydroxyethyl)-11,11,16,16-tetramethyl-13-(((Z)-octadec-9-en-1-yl)oxy)-10,12-dioxa-3-aza-11-silaheptadecan-17-oate] | 7.50E+02 | 8.22E+03 | 3.14E+04 |  | 96.6 | 97.9 |  | 106.5 | 107.9 | 104.0 | 103.1 | > 800 | 101 | 101.5 | 101.3 |  |  |  |
| CCCCCCCC/C=C\CCCCCCCCOC(=O)C(C)(C)CCC(OCCCCCCCC/C=C\CCCCCCCC)O[Si](C)(C)OCCCCCCN1CCOCC1 (stereo not drawn) [Example 95, (Z)-octadec-9-en-1-yl 5-((dimethyl((6-morpholinohexyl)oxy)silyl)oxy)-2,2-dimethyl-5-(((Z)-octadec-9-en-1-yl)oxy)pentanoate] | 1.22E+02 | 5.37E+02 | 9.82E+02 | 102.8 | 97.8 | 98.4 | 99.7 | 98.8 | 100.3 | 103.6 | 104.6 | > 800 | 106 |  |  |  |  |  |
| CCCCCCCC/C=C\CCCCCCCCOC(=O)C(C)(C)CC(OCCCCCCCC/C=C\CCCCCCCC)O[Si](C)(C)OCCCCCCN(CCO)CCN(CCO)CCCCCCO[Si](C)(C)OC(CC(C)(C)C(=O)OCCCCCCCC/C=C\CCCCCCCC)OCCCCCCCC/C=C\CCCCCCCC (stereo not drawn) [Example 96, di((Z)-octadec-9-en-1-yl) 14,17-bis(2-hydroxyethyl)-2,2,6,6,25,25,29,29-octamethyl-4,27-bis(((Z)-octadec-9-en-1-yl)oxy)-5,7,24,26-tetraoxa-14,17-diaza-6,25-disilatriacontanedioate] | 3.94E+02 | 2.15E+03 | 2.94E+03 | 98.62 | 98.94 | 97.36 | 96.50 | 95.63 | 90.16 | 67.88 | 5.80 | 465 | 104 |  |  |  |  |  |
| C#CCN(C)CCCCCCO[Si](C)(C)OC(CC(C)(C)C(=O)OCCCCCCCC/C=C\CCCCCCCC)OCCCCCCCC/C=C\CCCCCCCC (stereo not drawn) [Example 97, (Z)-octadec-9-en-1-yl 4,12,12,16,16-pentamethyl-14-(((Z)-octadec-9-en-1-yl)oxy)-11,13-dioxa-4-aza-12-silaheptadec-1-yn-17-oate] | 3.01E+02 | 1.34E+03 | 1.28E+03 | 100.7 | 96.1 | 95.5 | 97.5 | 98.9 | 99.7 | 91.8 | 0.7 |  | 109 |  |  | 501 |  |  |
| CCCCCCCCCCCOC(=O)CCCCCN(CCO)CCCCCCCC(=O)OC(CCCCCCCC)CCCCCCCC [SM-102, reference compound] | 2.15E+06 | 7.53E+06 | 7.61E+06 | 86.5 | 101.5 | 101.7 | 101.4 | 21.2 | 0.4 | 0.2 | 0.0 |  |  |  |  |  | 85 | 91 |

Reference: patent US20260109721A1, “IONIZABLE CATIONIC LIPIDS INCORPORATING SILICON: SYNTHESIS AND LNP FORMULATION” (priority 2023, published 2026)
